Legend:
[1] = tested on: Crono. sakazakii ATCC 29544; test: MIC in Nutrient Broth No. 2; assay type: cell-based, Cronobacter sakazakii; details: Nutrient Broth No. 2
Description: (§1) Bacteria species as indicated in Table 1 were incubated for approximately 24 hours at 37° C.
(§2) The tests were repeated with the addition of inducers. Methyl glycoside was the main inducer used, but other suitable inducers include isopropyl-β-D-thiogalactopyranoside, p-nitrophenyl-α-L-arabinopyranoside and p-nitrophenyl-β-D-xylopyranoside. Concentration of inducer in all cases was 100 μg/ml.

Ent. cloacae ATCC 13047 = test: MIC in Nutrient Broth No. 2; assay type: cell-based, Enterobacter cloacae; details: Nutrient Broth No. 2
Description: as §1, §2

E. hermanii ATCC 33650 = test: MIC in Nutrient Broth No. 2; assay type: cell-based, Escherichia hermanii; details: Nutrient Broth No. 2
Description: as §1, §2

[2] = tested on: Aeromonas hydrophila OCC 778; test: MIC in Nutrient Broth No. 2; assay type: cell-based; details: Nutrient Broth No. 2
Description: as §1, §2

[3] = tested on: Bacillus cereus ATCC 14579; test: MIC in Nutrient Broth No. 2; assay type: cell-based; details: Nutrient Broth No. 2
Description: as §1, §2

[4] = tested on: Bacillus subtilis NCTC 10073; test: MIC in Nutrient Broth No. 2; assay type: cell-based; details: Nutrient Broth No. 2
Description: as §1, §2

[5] = tested on: Citrobacter freundii OCC 851; test: MIC in Nutrient Broth No. 2; assay type: cell-based; details: Nutrient Broth No. 2
Description: as §1, §2

[6] = tested on: Enterobacter aerogenes ATCC 13048; test: MIC in Nutrient Broth No. 2; assay type: cell-based; details: Nutrient Broth No. 2
Description: as §1, §2

[7] = tested on: Enterococcus faecalis ATCC 29212; test: MIC in Nutrient Broth No. 2; assay type: cell-based; details: Nutrient Broth No. 2
Description: as §1, §2

[8] = tested on: Enterococcus faecium ATCC 19434; test: MIC in Nutrient Broth No. 2; assay type: cell-based; details: Nutrient Broth No. 2
Description: as §1, §2

Escherichia coli = test: MIC in Nutrient Broth No. 2; assay type: cell-based; details: 8 strains, Nutrient Broth No. 2
Description: as §1, §2

Hafnia alvei ATCC 13337 = test: MIC in Nutrient Broth No. 2; assay type: cell-based; details: Nutrient Broth No. 2
Description: as §1, §2

[9] = tested on: Proteus mirabilis ATCC 12453; test: MIC in Nutrient Broth No. 2; assay type: cell-based; details: Nutrient Broth No. 2
Description: as §1, §2

Proteus vulgaris OCC 195 = test: MIC in Nutrient Broth No. 2; assay type: cell-based; details: Nutrient Broth No. 2
Description: as §1, §2

[10] = tested on: Ps. Aeruginosa ATCC 27853; test: MIC in Nutrient Broth No. 2; assay type: cell-based; details: Nutrient Broth No. 2
Description: as §1, §2

Salmonella = test: MIC in Nutrient Broth No. 2; assay type: cell-based; details: 11 strains, Nutrient Broth No. 2
Description: as §1, §2

[11] = tested on: Serratia marcescens OCC 217; test: MIC in Nutrient Broth No. 2; assay type: cell-based; details: Nutrient Broth No. 2
Description: as §1, §2

Staph. aureus = test: MIC in Nutrient Broth No. 2; assay type: cell-based, Staphylococcus aureus; details: 8 strains, Nutrient Broth No. 2
Description: as §1, §2

Staph. epidermidis = test: MIC in Nutrient Broth No. 2; assay type: cell-based, Staphylococcus epidermidis; details: 3 strains, Nutrient Broth No. 2
Description: as §1, §2

[12] = tested on: Strep. pneumoniae ATCC 6305; test: MIC in Nutrient Broth No. 2; assay type: cell-based, Streptococcus pneumoniae; details: Nutrient Broth No. 2
Description: as §1, §2

[13] = tested on: Strep. pyogenes ATCC 19615; test: MIC in Nutrient Broth No. 2; assay type: cell-based, Streptococcus pyogenes; details: Nutrient Broth No. 2
Description: as §1, §2

Strep. viridans OCC 234 = test: MIC in Nutrient Broth No. 2; assay type: cell-based, Streptococcus viridans; details: Nutrient Broth No. 2
Description: as §1, §2

S. aureus = test: MIC in Nutrient Agar; assay type: cell-based, Staphylococcus aureus; details: 8 strains; Nutrient Agar containing 0.1 μg/ml of inducer; 37° C., 24 hours
Description: (§3) The triclosan-glycosides were added to Nutrient Agar (Oxoid CM0003; Thermofisher Scientific) and organisms were transferred onto the plates surface using a multi-point inoculation device (Oxoid Cathra, Thermofisher Scientific). The latter is essentially a metal plate containing a number of needles. Each needle tip (usually 36 per plate) dips into an organism suspension (in phosphate buffered saline; PBS) and the needles are then moved over the agar plate and lowered onto its surface. In this way the growth of colonies of up to 36 different organisms can be observed on one plate.
(§4) Nutrient Agar No. 2 was prepared according to the manufacturers instructions, autoclaved and cooled to 50° C. Test compounds were then added as filter sterilised solutions (50:50 deionised water:ethanol), to give final concentrations from 256 μg/ml to 0 μg/ml in doubling dilutions. […] The mixtures were swirled then four plates (25 ml molten agar) were poured for each concentration. Plates were dried in a laminar flow cabinet then inoculated with overnight cultures of organisms that had been decimally diluted twice in sterile saline solution (approximately 10^7 cfu/ml) using a multi-point inoculator. Plates were then incubated at 37° C. for 24 hours. MICs were determined as the concentration at which no growth was observed.

S. haemolyticus = test: MIC in Nutrient Agar; assay type: cell-based, Staphylococcus haemolyticus; details: Nutrient Agar containing 0.1 μg/ml of inducer; 37° C., 24 hours
Description: as §3, §4

Str. agalactiae = test: MIC in Nutrient Agar; assay type: cell-based, Streptococcus agalactiae; details: Nutrient Agar containing 0.1 μg/ml of inducer; 37° C., 24 hours
Description: as §3, §4

Str. pyogenes = test: MIC in Nutrient Agar; assay type: cell-based, Streptococcus pyogenes; details: Nutrient Agar containing 0.1 μg/ml of inducer; 37° C., 24 hours
Description: as §3, §4

Str. viridans = test: MIC in Nutrient Agar; assay type: cell-based, Streptococcus viridans; details: Nutrient Agar containing 0.1 μg/ml of inducer; 37° C., 24 hours
Description: as §3, §4

Cr. sakazakii = test: MIC in Nutrient Agar; assay type: cell-based, Cronobacter sakazakii; details: Nutrient Agar containing 0.1 μg/ml of inducer; 37° C., 24 hours
Description: as §3, §4

Ent. cloacae = test: MIC in Nutrient Agar; assay type: cell-based, Enterobacter cloacae; details: Nutrient Agar containing 0.1 μg/ml of inducer; 37° C., 24 hours
Description: as §3, §4

E. coli = test: MIC in Nutrient Agar; assay type: cell-based, Escherichia coli; details: 8 strains; Nutrient Agar containing 0.1 μg/ml of inducer; 37° C., 24 hours
Description: as §3, §4

E. hermanii = test: MIC in Nutrient Agar; assay type: cell-based, Escherichia hermanii; details: Nutrient Agar containing 0.1 μg/ml of inducer; 37° C., 24 hours
Description: as §3, §4

Kleb. aerogenes = test: MIC in Nutrient Agar; assay type: cell-based, Klebsiella aerogenes; details: Nutrient Agar containing 0.1 μg/ml of inducer; 37° C., 24 hours
Description: as §3, §4

Measured: MIC

OC[C@H]1O[C@H](Oc2cc(Cl)ccc2Oc2ccc(Cl)cc2Cl)[C@@H](O)[C@@H](O)[C@@H]1O [α-D-Mannoside, triclosan-α-D-mannopyranoside]
8 µg/mL: Ent. cloacae ATCC 13047; with inducer 100 μg/ml | Ent. cloacae ATCC 13047; without inducer | E. hermanii ATCC 33650; with inducer 100 μg/ml | [9]; with inducer 100 μg/ml | S. haemolyticus
4 µg/mL: Hafnia alvei ATCC 13337; with inducer 100 μg/ml | Hafnia alvei ATCC 13337; without inducer
2 to 8 µg/mL: Staph. aureus; with inducer 100 μg/ml | Staph. aureus; without inducer
16 µg/mL: E. hermanii ATCC 33650; without inducer | [9]; without inducer | Ent. cloacae | E. hermanii
8 to 64 µg/mL: E. coli
8 to 32 µg/mL: Salmonella; with inducer 100 μg/ml
64 µg/mL: [5]; with inducer 100 μg/ml | [5]; without inducer | [12]; without inducer | Str. pyogenes | Cr. sakazakii
4 to 32 µg/mL: Escherichia coli; with inducer 100 μg/ml
4 to 64 µg/mL: Escherichia coli; without inducer
4 to 8 µg/mL: Staph. epidermidis; with inducer 100 μg/ml | Staph. epidermidis; without inducer | S. aureus
32 µg/mL: [1]; with inducer 100 μg/ml | [6]; with inducer 100 μg/ml | [6]; without inducer | Proteus vulgaris OCC 195; with inducer 100 μg/ml | Proteus vulgaris OCC 195; without inducer | [13]; with inducer 100 μg/ml | [13]; without inducer | Kleb. aerogenes
256 µg/mL: [3]; with inducer 100 μg/ml | [3]; without inducer | [4]; with inducer 100 μg/ml | [7]; with inducer 100 μg/ml | [7]; without inducer | [8]; with inducer 100 μg/ml | [8]; without inducer
>256 µg/mL: [2]; with inducer 100 μg/ml | [2]; without inducer | [10]; with inducer 100 μg/ml | [10]; without inducer | [11]; with inducer 100 μg/ml | [11]; without inducer
128 µg/mL: [1]; without inducer | [4]; without inducer | [12]; with inducer 100 μg/ml | Strep. viridans OCC 234; with inducer 100 μg/ml | Strep. viridans OCC 234; without inducer | Str. agalactiae | Str. viridans
16 to 64 µg/mL: Salmonella; without inducer

OC[C@H]1O[C@@H](Oc2cc(Cl)ccc2Oc2ccc(Cl)cc2Cl)[C@H](O)[C@@H](O)[C@@H]1O [β-D-Glucoside, triclosan-β-D-glucopyranoside]
2 µg/mL: E. hermanii ATCC 33650; with inducer 100 μg/ml | [9]; with inducer 100 μg/ml
16 to 32 µg/mL: E. coli
0.5 µg/mL: Hafnia alvei ATCC 13337; with inducer 100 μg/ml
0.5 to 2 µg/mL: Staph. aureus; with inducer 100 μg/ml
16 µg/mL: Ent. cloacae ATCC 13047; without inducer | E. hermanii ATCC 33650; without inducer | [6]; with inducer 100 μg/ml | [7]; without inducer | [9]; without inducer | [13]; with inducer 100 μg/ml | S. haemolyticus | Ent. cloacae | E. hermanii
4 to 8 µg/mL: Staph. aureus; without inducer | S. aureus
8 to 64 µg/mL: Escherichia coli; without inducer
1 µg/mL: Ent. cloacae ATCC 13047; with inducer 100 μg/ml
>256 µg/mL: [2]; without inducer | [8]; without inducer | [10]; with inducer 100 μg/ml | [10]; without inducer | [11]; with inducer 100 μg/ml | [11]; without inducer | Str. agalactiae
256 µg/mL: [2]; with inducer 100 μg/ml | [3]; without inducer | [4]; without inducer | [8]; with inducer 100 μg/ml | Strep. viridans OCC 234; without inducer | Str. viridans
8 to 16 µg/mL: Staph. epidermidis; without inducer
8 µg/mL: [1]; with inducer 100 μg/ml | [5]; with inducer 100 μg/ml | Proteus vulgaris OCC 195; with inducer 100 μg/ml
0.5 to 1 µg/mL: Staph. epidermidis; with inducer 100 μg/ml
64 µg/mL: [1]; without inducer | [5]; without inducer | [6]; without inducer | Proteus vulgaris OCC 195; without inducer | [12]; with inducer 100 μg/ml | Str. pyogenes
128 µg/mL: [3]; with inducer 100 μg/ml | [7]; with inducer 100 μg/ml | [12]; without inducer | Strep. viridans OCC 234; with inducer 100 μg/ml
1 to 8 µg/mL: Escherichia coli; with inducer 100 μg/ml
2 to 8 µg/mL: Salmonella; with inducer 100 μg/ml
32 µg/mL: [4]; with inducer 100 μg/ml | [13]; without inducer | Cr. sakazakii | Kleb. aerogenes
4 µg/mL: Hafnia alvei ATCC 13337; without inducer

OC[C@H]1O[C@H](Oc2cc(Cl)ccc2Oc2ccc(Cl)cc2Cl)[C@H](O)[C@@H](O)[C@H]1O [α-D-Galactoside, triclosan-α-D-galactopyranoside]
>256 µg/mL: [2]; with inducer 100 μg/ml | [2]; without inducer | [3]; with inducer 100 μg/ml | [3]; without inducer | [4]; with inducer 100 μg/ml | [7]; with inducer 100 μg/ml | [7]; without inducer | [8]; with inducer 100 μg/ml | [8]; without inducer | [10]; with inducer 100 μg/ml | [10]; without inducer | [11]; with inducer 100 μg/ml | [11]; without inducer | Strep. viridans OCC 234; with inducer 100 μg/ml | Strep. viridans OCC 234; without inducer | Str. agalactiae | Str. pyogenes | Str. viridans
64 µg/mL: [1]; with inducer 100 μg/ml | [5]; without inducer | [6]; with inducer 100 μg/ml | Proteus vulgaris OCC 195; with inducer 100 μg/ml | Proteus vulgaris OCC 195; without inducer
256 µg/mL: [4]; without inducer | [12]; with inducer 100 μg/ml | [13]; with inducer 100 μg/ml | [13]; without inducer
8 µg/mL: Hafnia alvei ATCC 13337; with inducer 100 μg/ml | S. haemolyticus
32 to 128 µg/mL: Salmonella; with inducer 100 μg/ml
16 to 64 µg/mL: Escherichia coli; without inducer
4 to 256 µg/mL: Staph. epidermidis; with inducer 100 μg/ml
128 µg/mL: [1]; without inducer | [5]; with inducer 100 μg/ml | [6]; without inducer | [12]; without inducer
8 to 16 µg/mL: Staph. aureus; with inducer 100 μg/ml | Staph. aureus; without inducer
32 to 64 µg/mL: Salmonella; without inducer
32 µg/mL: Ent. cloacae ATCC 13047; without inducer | E. hermanii ATCC 33650; with inducer 100 μg/ml | E. hermanii ATCC 33650; without inducer | [9]; with inducer 100 μg/ml | [9]; without inducer | Cr. sakazakii | Ent. cloacae | E. hermanii | Kleb. aerogenes
4 to 8 µg/mL: S. aureus
8 to 64 µg/mL: Escherichia coli; with inducer 100 μg/ml
8 to 32 µg/mL: Staph. epidermidis; without inducer | E. coli
16 µg/mL: Ent. cloacae ATCC 13047; with inducer 100 μg/ml | Hafnia alvei ATCC 13337; without inducer

From patent publication US9908912B2, “Triclosan derivatives and uses thereof” (priority 2012, dated 2018)
